This is an account of results in patent US7884242B2, “N-heterocyclylphthaldiamides as insecticides” (Bayer CropScience AG, priority 2004, dated 2011).

Series [1] has as its system caterpillars of the fall army worm (Spodoptera frugiperda). Description: Spodoptera frugiperda test (spray treatment). The class given is in vivo. As to conditions: for pest or weed control at 4 g/ha: Spodoptera frugiperda, 168 h, spray treatment, maize leaf sections, after 7 d, read-out: Death rate in % after 7d; for activity in Spodoptera frugiperda test (spray treatment): statement in words. As to the method:
[table] For the preparation of a suitable active compound formulation 1 part by weight of the active compound is mixed with the above amounts of solvent and emulsifier and the concentrate is diluted to the desired concentration with water containing emulsifier. Maize leaf sections (Zea mays) are sprayed with an active compound preparation of the desired concentration and after drying infected with caterpillars of the fall army worm (Spodoptera frugiperda). After the desired time the activity in % is determined. Here 100% means that all caterpillars were killed; 0% means that no caterpillars were killed.

The test system of series [2] is larvae of the mustard leaf beetle (Phaedon cochleariae). Description: Phaedon test (spray treatment). As to conditions: for activity in Phaedon test (spray treatment): statement in words. The class given is in vivo. As to the method:
[table] For the preparation of a suitable active compound formulation 1 part by weight of the active compound is mixed with the above amounts of solvent and emulsifier and the concentrate is diluted to the desired concentration with water containing emulsifier. China cabbage slices (Brassica pekinensis) are sprayed with an active compound preparation of the desired composition and after drying infected with larvae of the mustard leaf beetle (Phaedon cochleariae). After the desired time the activity in % is determined. Here 100% means that all beetle larvae were killed; 0% means that no beetle larvae were killed.

For series [3], the system named is green peach aphid (Myzus persicae). The experiment in a line: Myzus test (spray treatment). The settings on record: for pest or weed control at 100 g/ha: Myzus persicae, in Brassica oleracea, 120 h, spray treatment, China cabbage slices, after 5 d, read-out: Death rate in % after 5d; for activity in Myzus test (spray treatment): statement in words. The class given is in vivo. Here is the method:
[table] For the preparation of a suitable active compound formulation 1 part by weight of the active compound is mixed with the above amounts of solvent and emulsifier and the concentrate is diluted to the desired concentration with water containing emulsifier. China cabbage slices (Brassica pekinensis) that are infected with all stages of the green peach aphid (Myzus persicae) are sprayed with an active compound preparation at the desired concentration. After the desired time the activity in % is determined. Here 100% means that all aphids were killed; 0% means that no aphids were killed.

Series [4] in a line: log P determination by HPLC on reverse phase column, pH 2.3. The class given is physicochemical. The settings on record: reverse phase HPLC column (C 18), reverse phase column (C 18), pH 2.3, 43° C. Here is the method:
The determination of the log P values given in the above table and preparation examples is carried out in accordance with EEC directive 79/831 Annex V.A8 by HPLC (High Performance Liquid Chromatography) on a reverse phase column (C 18). Temperature: 43° C. The determination is carried out under acidic conditions at pH 2.3 with 0.1% aqueous phosphoric acid and acetonitrile as eluents; linear gradient of 10% acetonitrile to 95% acetonitrile. Calibration was is carried out with unbranched alkan-2-ones (with 3 to 16 carbon atoms) of known log P values (Determination of log P values by the retention times by linear interpolation between two sequential alkanones).

Series [5] concerns cotton aphid (Aphis gossypii). Description: Aphis gossypii test. The class given is in vivo. Here is the method: [table] For the preparation of a suitable active compound formulation 1 part by weight of the active compound is mixed with the above amounts of solvent and emulsifier and the concentrate is diluted to the desired concentration with water containing emulsifier. Cotton leaves (Gossypium hirsutum) heavily infested with the cotton aphid (Aphis gossypii) are treated by immersion in the active compound preparation at the desired concentration. After the desired time the death rate in % is determined. Here 100% means that all aphids were killed; 0% means that no aphids were killed.

The test system of series [6] is caterpillars of the diamond back moth (Plutella xylostella). Description: Plutella test. The class given is in vivo. As to the method: [table] For the preparation of a suitable active compound formulation 1 part by weight of the active compound is mixed with the above amounts of solvent and emulsifier and the concentrate is diluted to the desired concentration with water containing emulsifier. Cabbage leaves (Brassica oleracea) are treated by dipping into the active compound preparation of the desired concentration and infected with caterpillars of the diamond back moth (Plutella xylostella) while the leaves were still wet. After the desired time the death rate is determined as %. Here 100% means that all caterpillars were killed; 0% means no caterpillars were killed.

The mark [7] stands for this setting: Phaedon cochleariae, 168 h, spray treatment, China cabbage slices, after 7 d, read-out: Death rate in % after 7d.

With `CSC[C@H](C)NC(=O)c1c(Cl)cccc1C(=O)Nc1ccc(Cn2nc(C(F)(F)F)cc2C(F)(F)F)nc1C` [Example 1, N^1-(6-{[3,5-bis(trifluoromethyl)-1H-pyrazol-1-yl]methyl}-2-methylpyridin-3-yl)-3-chloro-N^2-[(1S)-1-methyl-2-(methylthio)ethyl]phthalamide], in series [1], the pest or weed control at 4 g/ha was 100% and the “activity in Spodoptera frugiperda test (spray treatment)” value (from here on “activity in Spodoptera frugiperda test”) is given as “good activity”. Besides, the pest or weed control at 100 g/ha in series [2] (setting [7]) is 100%. Besides, the “activity in Phaedon test (spray treatment)” value (“activity in Phaedon test” for short) in series [2] is on record as “good activity”. Moreover, in series [3], the pest or weed control at 100 g/ha came out at 100% and the “activity in Myzus test (spray treatment)” value is “good activity”.

Take `Cc1nc(Cn2nc(C(F)(F)F)cc2C(F)(F)F)ccc1NC(=O)c1cccc(I)c1C(=O)N[C@@H](C)CS(C)(=O)=O` [Example 8]: in series [1], the pest or weed control at 4 g/ha came out at 100% and the “activity in Spodoptera frugiperda test” value was “good activity”. Moreover, in series [2] (setting [7]), the pest or weed control at 100 g/ha was found to be 100%. Also, the “activity in Phaedon test” value in series [2] is given as “good activity”. Besides, in series [3], the pest or weed control at 100 g/ha turned out to be 100% and the “activity in Myzus test (spray treatment)” value is on record as “good activity”. Besides, in series [4], the chromatographic logP (commonly lipophilicity estimated from chromatographic retention) came out at 2.8.

As to `CSC[C@H](C)NC(=O)c1c(Br)cccc1C(=O)Nc1cnc(Cn2nc(C(F)(F)C(F)(F)F)nc2C(F)(F)F)nc1C` [Example 31], in series [1], the pest or weed control at 4 g/ha amounted to 100% and the “activity in Spodoptera frugiperda test” value is “good activity”. Further, in series [3], the pest or weed control at 100 g/ha amounted to 100% and the “activity in Myzus test (spray treatment)” value is listed as “good activity”. In series [4], this compound gave a chromatographic logP of 3.67.

In the case of `Cc1nc(Cn2nc(C(F)(F)F)cc2C(F)(F)F)ccc1NC(=O)c1cccc(I)c1C(=O)N[C@@H](C)C[S+](C)[O-]` (stereo partly shown) [Example 7], in series [1], the pest or weed control at 4 g/ha came out at 100% and the “activity in Spodoptera frugiperda test” value was “good activity”. For the same compound, the pest or weed control at 100 g/ha in series [2] (setting [7]) amounted to 90%. Further, the “activity in Phaedon test” value in series [2] is recorded as “good activity”. For the same compound, in series [3], the pest or weed control at 100 g/ha was 90% and the “activity in Myzus test (spray treatment)” value was “good activity”. Also, the chromatographic logP in series [4] amounted to 2.42.

With `Cc1nc(Cn2nc(C(F)(F)F)nc2C(F)(F)F)ccc1NC(=O)c1cccc(Cl)c1C(=O)N[C@@H](C)C[S+](C)[O-]` (stereo partly shown) [Example 15], in series [1], the pest or weed control at 4 g/ha stood at 100% and the “activity in Spodoptera frugiperda test” value is “good activity”. Moreover, the pest or weed control at 100 g/ha in series [2] (setting [7]) was found to be 100%. Moreover, the “activity in Phaedon test” value in series [2] was “good activity”. In addition, in series [3], the pest or weed control at 100 g/ha is 100% and the “activity in Myzus test (spray treatment)” value is on record as “good activity”. The compound also registered a chromatographic logP in series [4] of 2.17.

For `CSC[C@H](C)NC(=O)c1c(I)cccc1C(=O)Nc1cnc(Cn2nc(C(F)(F)F)cc2C(F)(F)F)nc1C` [Example 19], in series [1], the pest or weed control at 4 g/ha is 83% and the “activity in Spodoptera frugiperda test” value is given as “good activity”. For the same compound, in series [3], the pest or weed control at 100 g/ha worked out at 100% and the “activity in Myzus test (spray treatment)” value was “good activity”. The same compound yielded a chromatographic logP in series [4] of 3.55.

As for `CSC[C@H](C)NC(=O)c1c(Cl)cccc1C(=O)Nc1cnc(Cn2nc(C(F)(F)C(F)(F)F)nc2C(F)(F)F)nc1C` [Example 30], in series [1], the pest or weed control at 4 g/ha turned out to be 100% and the “activity in Spodoptera frugiperda test” value is “good activity”. Further, in series [3], the pest or weed control at 100 g/ha came to 90% and the “activity in Myzus test (spray treatment)” value is recorded as “good activity”. The same compound displayed a chromatographic logP in series [4] of 3.62.

For `CSC[C@H](C)NC(=O)c1c(Br)cccc1C(=O)Nc1cnc(Cn2nc(C(F)(F)F)cc2C(F)(F)F)nc1C` [Example 18], in series [1], the pest or weed control at 4 g/ha was determined as 100% and the “activity in Spodoptera frugiperda test” value is “good activity”. Besides, in series [3], the pest or weed control at 100 g/ha was found to be 100% and the “activity in Myzus test (spray treatment)” value is “good activity”. This compound showed a chromatographic logP in series [4] of 3.44.

Take `Cc1nc(Cn2nc(C(F)(F)F)cc2C(F)(F)F)ncc1NC(=O)c1cccc(Cl)c1C(=O)N[C@@H](C)CS(C)(=O)=O` [Example 34]: in series [1], the pest or weed control at 4 g/ha stood at 100% and the “activity in Spodoptera frugiperda test” value was “good activity”. In series [3], the “activity in Myzus test (spray treatment)” value is reported as “good activity”. In addition, the chromatographic logP in series [4] came out at 2.56.

Regarding `CSC[C@H](C)NC(=O)c1c(Cl)cccc1C(=O)Nc1ccc(Cn2nc(C(F)(F)F)nc2C(F)(F)F)nc1C` [Example 14], in series [1], the pest or weed control at 4 g/ha came to 100% and the “activity in Spodoptera frugiperda test” value is “good activity”. For the same compound, the pest or weed control at 100 g/ha in series [2] (setting [7]) amounted to 90%. Moreover, in series [2], the “activity in Phaedon test” value is “good activity”. For the same compound, in series [3], the pest or weed control at 100 g/ha was 90% and the “activity in Myzus test (spray treatment)” value is given as “good activity”. This compound had a chromatographic logP in series [4] of 3.39.

For `Cc1nc(Cn2cc(C(F)(F)C(F)(F)F)c(C(F)(F)C(F)(F)F)n2)ncc1NC(=O)c1cccc(Cl)c1C(=O)N[C@@H](C)C[S+](C)[O-]` (stereo partly shown) [Example 65], in series [1], the pest or weed control at 4 g/ha was 100% and the “activity in Spodoptera frugiperda test” value was “good activity”. The pest or weed control at 4 g/ha in series [2] (Phaedon cochleariae, 168 h, 4 g/ha, spray treatment, China cabbage slices, after 7 d, read-out: Death rate in % after 7d) came to 100%. In addition, the “activity in Phaedon test” value in series [2] is listed as “good activity”. In addition, in series [3], the pest or weed control at 100 g/ha came out at 100% and the “activity in Myzus test (spray treatment)” value was “good activity”. The “Death rate in % after 7d” value in series [5] (100 ppm, cotton leaves immersed, after 7 d) amounted to 80%. The “activity in Aphis gossypii test” value in series [5] (statement in words) is given as “good activity”. Also, the chromatographic logP in series [4] was determined as 2.91.

`Cc1nc(Cn2nc(C(F)(F)F)cc2C(F)(F)F)ccc1NC(=O)c1cccc(Cl)c1C(=O)N[C@@H](C)C[S+](C)[O-]` (stereo partly drawn) [Example 2, N^1-(6-{[3,5-bis(trifluoromethyl)-1H-pyrazol-1-yl]methyl}-2-methylpyridin-3-yl)-3-chloro-N^2-[(1S)-1-methyl-2-(methylsulphinyl)ethyl]phthalamide]: in series [1], the pest or weed control at 4 g/ha was determined as 100% and the “activity in Spodoptera frugiperda test” value was “good activity”. The pest or weed control at 100 g/ha in series [2] (setting [7]) came to 100%. Moreover, in series [2], the “activity in Phaedon test” value was “good activity”. In series [3], the pest or weed control at 100 g/ha is 100% and the “activity in Myzus test (spray treatment)” value is “good activity”.

For the compound `Cc1nc(Cn2nc(C(F)(F)F)nc2C(F)(F)F)ccc1NC(=O)c1cccc(I)c1C(=O)N[C@@H](C)C[S+](C)[O-]` (stereo partly shown) [Example 13], in series [1], the pest or weed control at 4 g/ha is 100% and the “activity in Spodoptera frugiperda test” value was “good activity”. Moreover, the pest or weed control at 100 g/ha in series [2] (setting [7]) stood at 100%. Besides, the “activity in Phaedon test” value in series [2] was “good activity”. In series [3], the pest or weed control at 100 g/ha was found to be 100% and the “activity in Myzus test (spray treatment)” value was “good activity”. Also, in series [4], the chromatographic logP was determined as 2.28. In series [6] (0.16 ppm, cabbage leaves dipped, after 7 d), the “Death rate in % after 7d” value came to 95%. The “activity in Plutella test” value in series [6] (statement in words) is “good activity”.
